Results taken from US12600740B2, “Fluorinated N-acetyl glucosamine analogs and xylose derivatives” (UTI Limited Partnership, priority 2018, dated 2026).

How the values were obtained:
splenocytes = experiment: Splenocyte thymidine proliferation assay (anti-CD3/anti-CD28); type: cell-based, mouse; settings: for splenocyte proliferation: 25 μM, 48 hours; for Reduce T cell proliferation: activated splenocytes, significance class
Procedure: It was assessed whether the glucosamine analogs have immunomodulatory properties on splenocytes isolated in culture. T cells within the splenocyte pool were polyclonally activated with anti-CD3 and anti-CD28 antibodies in the presence of compounds for 48 hours, and proliferation was determined by the uptake of tritiated thymidine and expressed as counts per minute. The relative change in proliferation of treated versus control splenocytes was taken in order to rank the compounds across multiple independent experiments (FIG. 8a).
The spleens were isolated from 8-10-week-old female C57BL/6 mice and homogenized. The cells were isolated by Ficoll gradient and spun for 30 min at 1,800 r.p.m. The cell suspension was removed and the cells were washed once with PBS. The cell pellet was subsequently re-suspended in Roswell Park Memorial Institute media containing 10% fetal bovine serum, 1% penicillin/streptomycin, 1% sodium pyruvate and 1% L-glutamine. Trypan blue exclusion was used to count live cells, and the cells were plated at 2.5×10^5 cells per well in a round-bottom 96-well plate and activated with 1,000 ng/ml plate-bound anti-CD3 and 1,000 ng/ml anti-CD28 suspended in media to preferentially activate T lymphocytes. Compounds were added at final concentrations of 25 μM. The cells were kept at 37° C. and 5% CO2 for 30 h, after which 10 μl/well (1 μCi per well) of 3H-thymidine was added for 18 h. The cells containing thymidine were harvested onto filter mats using a cell harvester and mats were allowed to dry for 24 h. The results were read by liquid scintillation counts.

[1] = test system: intact 4-sulfated chondroitin sulfate sidechains (2H6); experiment: Western blot of astrocyte conditioned medium, 2H6 (intact chondroitin-4-sulfate); type: cell-based, mouse; settings: astrocyte conditioned media
Source text: Astrocytes are major producers of CSPGs following injury in the CNS [Jones, L. L., Margolis, R. U. & Tuszynski, M. H. The chondroitin sulfate proteoglycans neurocan, brevican, phosphacan, and versican are differentially regulated following spinal cord injury. Experimental Neurology 182, 399-411 (2003); Tang, X., Davies, J. E. & Davies, S. J. Changes in distribution, cell associations, and protein expression levels of NG2, neurocan, phosphacan, brevican, versican V2, and tenascin-C during acute to chronic maturation of spinal cord scar tissue. […] The Journal of neuroscience: the official journal of the Society for Neuroscience 20, 2427-2438 (2000); McKeon, R. J., Jurynec, M. J. & Buck, C. R. The chondroitin sulfate proteoglycans neurocan and phosphacan are expressed by reactive astrocytes in the chronic CNS glial scar. The Journal of neuroscience: the official journal of the Society for Neuroscience 19, 10778-10788 (1999); Haas, C. A., Rauch, U., Thon, N., Merten, T. & Deller, T. Entorhinal cortex lesion in adult rats induces the expression of the neuronal chondroitin sulfate proteoglycan neurocan in reactive astrocytes. The Journal of neuroscience: the official journal of the Society for Neuroscience 19, 9953-9963 (1999)] and they may help drive progression of disability in a model of progressive MS [Mayo, L. et al. Regulation of astrocyte activation by glycolipids drives chronic CNS inflammation. Nature medicine 20, 1147-1156 (2014)]. Therefore astrocytes were used as model cells to determine the ability of the sugar analogs to reduce synthesis of CSPGs. Since CSPGs are exported out of cells, the conditioned media from analog-treated astrocytes were probed by Western blots (FIG. 4). We used antibodies to both the stubs of chondroitin sulfate GAGs attached to the core protein (MAB2030) and to intact 4-sulfated chondroitin sulfate sidechains (2H6) (FIG. 4a). Particularly, we used the 2H6 antibody to label intact 4-sulfated chondroitin sulfate sidechains, and the MAB2030 antibody to detect the stubs of chondroitin sulfate GAGs attached to the core protein. […] 1998, 160 (8), 3812-3819. Poole Poole C. A.; Glant T. T.; Schofield J. R.; Chondrons from articular cartilage. (IV). Immunolocalization of proteoglycan epitopes in isolated canine tibial chondrons. J. Histochem. Cytochem. 1991, 39 (9), 1175-1187].
Astrocytes were plated in uncoated 6-well plates (3 replicate wells per treatment) at 1×10^6 cells/well in mixed glial media, and incubated at 5% CO2 and 37° C. Astrocytes were treated with compounds at 50 μM in AIM-V media for 48 hours. Media was pooled from 3 replicate wells in 15 ml 100K cutoff centricon tubes (EMD Millipore, #UFC905008), which were spun on an ultracentrifuge at 5000× g for 2 cycles of 10 minutes each. […] Total protein was quantified using a Bradford assay. […]

SMILES | splenocyte proliferation (splenocytes) | Reduce T cell proliferation (splenocytes) | total chondroitin sulfate side chains (2H6) [1]
CC(=O)N[C@H]1[C@H](OC(C)=O)O[C@H](COC(C)=O)[C@@H](OC(C)=O)[C@@H]1OC(C)=O [Compound 1, reference compound] | reduced splenocyte proliferation | **** (****p < 0.0001) | 
CC(=O)NC1C(OC(C)=O)OC(COC(C)=O)C(F)(F)[C@@H]1OC(C)=O (mixture of isomers) [Compound 16, 2-Acetamido-1,3,6-tri-O-acetyl-2,4-dideoxy-4,4-difluoro-α/β-D-xylo-hexopyranose] |  |  | showed evidence of reducing total chondroitin sulfate side chains
CC(=O)NC1C(O)OC(COC(C)=O)[C@@H](F)[C@@H]1OC(C)=O (mixture of isomers) [Compound 10] |  |  | showed evidence of reducing total chondroitin sulfate side chains
CCC(=O)OC1OC(COC(C)=O)[C@@H](F)[C@H](OC(C)=O)C1NC(C)=O (stereo partly drawn) [Compound 7, 2-Acetamido-3,6-di-O-acetyl-2,4-dideoxy-4-fluoro-1-O-propanoyl-α/β-D-glucopyranose] |  |  | showed evidence of reducing total chondroitin sulfate side chains
CCCC(=O)OC[C@H]1OC(O)[C@H](NC(C)=O)[C@@H](OC(=O)CCC)[C@@H]1F (stereo partly drawn) [Compound 12, 2-Acetamido-3,6-di-O-butanoyl-2,4-dideoxy-4-fluoro-α/β-3-D-glucopyranose] | reduced splenocyte proliferation | ** (**p < 0.01) | 
CC(=O)NC1C(OC(C)=O)OC(COC(C)=O)[C@@H](F)C1OC(C)=O (stereo partly drawn) [Compound 3, reference compound] |  | **** (****p < 0.0001) | showed evidence of reducing total chondroitin sulfate side chains
